Results taken from paper PMC10649961, “Novel Mitochondria-Targeted Amphiphilic Aminophosphonium Salts and Lipids Nanoparticles: Synthesis, Antitumor Activity and Toxicity” (Nanomaterials, 2023).
Where two headings read alike, the source gives them in different places.

How the values were obtained:
Hep G2 [1] = test: cells; conditions: Homo sapiens, HepG2, 48 h, read-out: Cytotoxic Effects (IC50)
[2] = tested on: Pseudomonas aeruginosa ATCC 9027; test: Antimicrobial activity, serial microdilutions, Pa; type: cell-based; parameters: key to Minimum Inhibitory Concentration (MIC) / Minimum bactericidal and fungicidal concentrations (MBC, MFC): – means non-active
How it was run: (§1)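 Yeast was cultured in Sabouraud broth and bacteria in Mueller-Hinton broth while compounds were tested by serial microdilution. The methicillin-resistant isolate (MRSA-1) originated from chronic tonsillitis; replicates n=3.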

T98G [3] = tested on: T98G
A549 [4] = test: cells; conditions: Homo sapiens, A549, 48 h, read-out: Cytotoxic Effects (IC50)
PC3 [5] = test: cells; conditions: Homo sapiens, PC-3, 48 h, read-out: Cytotoxic Effects (IC50), PC3, MTT assay, 48 h
[6] = tested on: Candida albicans ATCC 10231; test: Antimicrobial activity, serial microdilutions, Ca; type: cell-based; parameters: key to Minimum Inhibitory Concentration (MIC) / Minimum bactericidal and fungicidal concentrations (MBC, MFC): – means non-active
How it was run: as §1

Hep G2 [7] = tested on: Hep G2
[8] = tested on: Escherichia coli ATCC 25922; test: Antimicrobial activity, serial microdilutions, Ec; type: cell-based; parameters: key to Minimum Inhibitory Concentration (MIC) / Minimum bactericidal and fungicidal concentrations (MBC, MFC): – means non-active
How it was run: as §1

MRSA-1 = test: Antimicrobial activity, serial microdilutions, MRSA-1; type: cell-based, S. aureus; parameters: key to Minimum Inhibitory Concentration (MIC) / Minimum bactericidal and fungicidal concentrations (MBC, MFC): – means non-active; conditions: for MIC: read-out: Minimum Inhibitory Concentration (MIC)
How it was run: as §1

T98G [9] = test: cells; conditions: Homo sapiens, 48 h, read-out: Cytotoxic Effects (IC50)
SK-OV-3 [10] = test: cells; conditions: Homo sapiens, SK-OV-3, 48 h, read-out: Cytotoxic Effects (IC50)
PANC-1 [11] = conditions: calculated relative to the cell line WI38 (a)
PANC-1 [12] = test: cells; conditions: Homo sapiens, PANC-1, 48 h, read-out: Cytotoxic Effects (IC50)
HuTu 80 [13] = conditions: calculated relative to the cell line WI38 (a)
PC3 [14] = conditions: calculated relative to the cell line WI38 (a)
SK-OV-3 [15] = tested on: SK-OV-3
HuTu 80 [16] = test: cells; conditions: Homo sapiens, HuTu80, 48 h, read-out: Cytotoxic Effects (IC50)
DU-145 [17] = test: cells; conditions: Homo sapiens, DU-145, 48 h, read-out: Cytotoxic Effects (IC50), DU-145, MTT assay, 48 h
M-HeLa [18] = conditions: calculated relative to the cell line WI38 (a)
DU-145 [19] = tested on: DU-145
[20] = tested on: Bacillus cereus ATCC 10702 NCTC 8035; test: Antimicrobial activity, serial microdilutions, Bc; type: cell-based; parameters: key to Minimum bactericidal and fungicidal concentrations (MBC, MFC): – means non-active; conditions: for MIC: read-out: Minimum Inhibitory Concentration (MIC)
How it was run: as §1

A549 [21] = tested on: A549
MCF-7 [22] = conditions: calculated relative to the cell line WI38 (a)
M-HeLa [23] = test: cells; conditions: Homo sapiens, 48 h, read-out: Cytotoxic Effects (IC50)
[24] = tested on: Staphylococcus aureus ATCC 6538 P FDA 209P; test: Antimicrobial activity, serial microdilutions, Sa; type: cell-based; parameters: key to Minimum bactericidal and fungicidal concentrations (MBC, MFC): – means non-active; conditions: for MIC: read-out: Minimum Inhibitory Concentration (MIC)
How it was run: (§2)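 Compounds were serially diluted in broth: Mueller-Hinton for the bacterial strains, Sabouraud for the yeast. Each determination was done in triplicate.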

MRSA-2 = test: Antimicrobial activity, serial microdilutions, MRSA-2; type: cell-based, S. aureus; conditions: Staphylococcus aureus; for MIC: read-out: Minimum Inhibitory Concentration (MIC); for MBC: read-out: Minimum bactericidal and fungicidal concentrations (MBC, MFC)
How it was run: as §2

[25] = tested on: Enterococcus faecalis ATCC 29212; test: Antimicrobial activity, serial microdilutions, Ef; type: cell-based; parameters: key to Minimum Inhibitory Concentration (MIC) / Minimum bactericidal and fungicidal concentrations (MBC, MFC): – means non-active
How it was run: as §2

MCF-7 [26] = test: cells; conditions: Homo sapiens, MCF7, 48 h, read-out: Cytotoxic Effects (IC50)
[27] = calculated relative to the cell line WI38 (a)
[28] = Staphylococcus aureus, read-out: Minimum bactericidal and fungicidal concentrations (MBC, MFC)
[29] = reference normal cell line not marked at the place (ns cells)

Row | Structure (SMILES) | IC50 (Hep G2 [1]) [nM] | IC50 (A549 [4]) [nM] | IC50 (PC3 [5]) [nM] | MIC (MRSA-1; Staphylococcus aureus) [µM] | IC50 (T98G [9]) [nM] | IC50 (SK-OV-3 [10]) [nM] | selectivity index (SI) (PANC-1 [11]) | IC50 (PANC-1 [12]) [nM] | selectivity index (SI) (HuTu 80 [13]) | selectivity index (SI) (PC3 [14]) | IC50 (HuTu 80 [16]) [nM] | IC50 (DU-145 [17]) [nM] | selectivity index (SI) (M-HeLa [18]) | MIC ([20]; Bacillus cereus, Bc) [µM] | selectivity index (SI) (MCF-7 [22]) | IC50 (M-HeLa [23]) [nM] | MIC ([24]; Staphylococcus aureus) [µM] | MIC (MRSA-2) [µM] | MBC (MRSA-2) [µM] | IC50 (MCF-7 [26]) [nM] | further results
1 | CCCCCCCCCCCCCC[P+](c1ccccc1)(c1ccccc1)N(CC)CC [6e, (Diethylamino)diphenyl(tetradecyl)phosphonium bromide] | 1400 ± 100 | 2100 ± 100 | 1500 ± 100 | 0.5 ± 0.04 | 1100 ± 90 | 1600 ± 100 | 9.3 | 300 ± 20 | 40 | 1.9 | 70 ± 5 | 400 ± 20 | 7.0 | 0.9 ± 0.08 | 2.3 | 400 ± 30 | 0.5 ± 0.04 | 0.5 ± 0.03 | 0.5 ± 0.04 | 1200 ± 100 | MIC ([2]; Pseudomonas aeruginosa, ATCC9027, read-out: Minimum Inhibitory Concentration (MIC)): 3.9 ± 0.3 µM; MBC ([2]; Pseudomonas aeruginosa, ATCC9027, read-out: Minimum bactericidal and fungicidal concentrations (MBC, MFC)): 3.9 ± 0.4 µM; selectivity index (SI) (T98G [3]; [27]): 2.5; MIC ([6]; Candida albicans, ATCC10231, read-out: Minimum Inhibitory Concentration (MIC)): 1.9 ± 0.1 µM; MBC ([6]; Candida albicans, ATCC10231, read-out: Minimum bactericidal and fungicidal concentrations (MBC, MFC)): 15.6 ± 1.2 µM; selectivity index (SI) (Hep G2 [7]; [27]): 2.0; MIC ([8]; Escherichia coli, ATCC25922, read-out: Minimum Inhibitory Concentration (MIC)): 31.3 ± 2.4 µM; MBC ([8]; Escherichia coli, ATCC25922, read-out: Minimum bactericidal and fungicidal concentrations (MBC, MFC)): 125 ± 11 µM; MBC (MRSA-1; [28]): 1.9 ± 0.1 µM; selectivity index (SI) (SK-OV-3 [15]; [27]): 1.8; selectivity index (SI) (DU-145 [19]; [27]): 7.0; MBC ([20]; Bacillus cereus, read-out: Minimum bactericidal and fungicidal concentrations (MBC, MFC)): 31.3 ± 2.5 µM; selectivity index (SI) (A549 [21]; [27]): 1.3; MBC [24, 28]: 0.5 ± 0.04 µM; MIC ([25]; Enterococcus faecalis, ATCC29212, read-out: Minimum Inhibitory Concentration (MIC)): 0.5 ± 0.03 µM; MBC ([25]; Enterococcus faecalis, ATCC29212, read-out: Minimum bactericidal and fungicidal concentrations (MBC, MFC)): 0.9 ± 0.1 µM
2 | CCCCCCCC[N+](CC)(CC)CC [compound 7, Triethyloctylammonium iodide, reference compound] | > 100000 | > 100000 | 32700 ± 2300 | 250 ± 19 | > 100000 | 69000 ± 4800 | 1.1 | 44600 ± 3100 | 26 | 1.5 | 1900 ± 200 | 58000 ± 4100 | 3.0 | 500 ± 47 | 1.7 | 16100 ± 1300 | 250 ± 20 | 250 ± 20 | 500 ± 47 | 29100 ± 2000 | Minimum Inhibitory Concentration (MIC) [2]: –; Minimum bactericidal and fungicidal concentrations (MBC, MFC) [2]: –; selectivity index (SI) (T98G [3]; [29]): ns (ns—no selectivity); Minimum Inhibitory Concentration (MIC) ([6]; Ca): –; Minimum bactericidal and fungicidal concentrations (MBC, MFC) ([6]; Ca): –; selectivity index (SI) (Hep G2 [7]; [29]): ns (ns—no selectivity); Minimum Inhibitory Concentration (MIC) [8]: –; Minimum bactericidal and fungicidal concentrations (MBC, MFC) [8]: –; Minimum bactericidal and fungicidal concentrations (MBC, MFC) (MRSA-1): –; selectivity index (SI) (SK-OV-3 [15]; [29]): ns (ns—no selectivity); selectivity index (SI) (DU-145 [19]; [29]): ns (ns—no selectivity); Minimum bactericidal and fungicidal concentrations (MBC, MFC) ([20]; Bc): –; selectivity index (SI) (A549 [21]; [29]): ns (ns—no selectivity); Minimum bactericidal and fungicidal concentrations (MBC, MFC) [24]: –; Minimum Inhibitory Concentration (MIC) [25]: –; Minimum bactericidal and fungicidal concentrations (MBC, MFC) [25]: –
